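Values below derive from 48-hour exposures of cells grown in 96-well plates, with endpoints linearly interpolated between the two concentrations bracketing the appropriate inhibition level. At the GI50, growth is halved. TGI: total growth inhibition.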
Experiments:
Test in all cases: NCI anticancer screen, dose series, 48 h
COLO 205 colon = system: COLO 205 colon
DU-145 prostate = system: DU-145 prostate
HCT-15 colon = system: HCT-15 colon
KM12 colon = system: KM12 colon
OVCAR-4 ovarian = system: OVCAR-4 ovarian
RXF 393 renal = system: RXF 393 renal
SK-MEL-28 melanoma = system: SK-MEL-28 melanoma
SK-MEL-5 melanoma = system: SK-MEL-5 melanoma
UACC-62 melanoma = system: UACC-62 melanoma
MOLT-4 leukemia = system: MOLT-4 leukemia

SMILES	TGI (COLO 205 colon)	TGI (DU-145 prostate)	TGI (HCT-15 colon)	TGI (KM12 colon)	TGI (OVCAR-4 ovarian)	TGI (RXF 393 renal)	TGI (SK-MEL-28 melanoma)	TGI (SK-MEL-5 melanoma)	TGI (UACC-62 melanoma)	TGI (MOLT-4 leukemia)	GI50 (COLO 205 colon)	GI50 (HCT-15 colon)	GI50 (KM12 colon)	GI50 (MOLT-4 leukemia)	GI50 (OVCAR-4 ovarian)	GI50 (RXF 393 renal)	GI50 (SK-MEL-28 melanoma)	GI50 (SK-MEL-5 melanoma)	GI50 (UACC-62 melanoma)	GI50 (DU-145 prostate)
O=S(=O)(O)C(c1ccccc1)C(O)c1ccccc1 (centres undefined)	> 100 µM	> 100 µM	> 100 µM	> 100 µM	> 100 µM	> 100 µM	> 100 µM	> 100 µM	> 100 µM	–	–	–	–	–	–	–	–	–	–	–
NS(=O)(=O)c1cc2c(cc1Cl)NCNS2(=O)=O	> 100 µM	> 100 µM	> 100 µM	> 100 µM	> 100 µM	–	> 100 µM	> 100 µM	–	> 100 µM	–	–	–	–	–	–	–	–	–	–
N#CC1(CCCCl)CCCCC1	> 100 µM	–	> 100 µM	> 100 µM	–	> 100 µM	> 100 µM	> 100 µM	> 100 µM	> 100 µM	–	–	–	–	–	–	–	–	–	–
CN(C)c1ccc(/C=N/N=C(\C#N)[S][Sn]([Cl])([c]2ccccc2)[c]2ccccc2)cc1	3.52 µM	–	2.73 µM	3.94 µM	2.63 µM	2.72 µM	2.93 µM	3.37 µM	2.87 µM	5.32 µM	1.64 µM	1.26 µM	1.8 µM	0.876 µM	1.32 µM	1.38 µM	1.48 µM	1.66 µM	1.41 µM	–
O=C(O)c1cn(C2CC2)c2cc(N3CCN(C(=O)N(c4ccccc4)c4nc(-c5ccccc5)cs4)CC3)c(F)cc2c1=O	–	> 100 µM	> 100 µM	> 100 µM	> 100 µM	1.49 µM	> 100 µM	> 100 µM	–	–	–	0.308 µM	0.369 µM	–	0.526 µM	0.272 µM	0.687 µM	0.717 µM	–	0.521 µM
O=S(=O)(Nc1ccccc1)c1ccc(C2CC3(Cl)C(Cl)=C(Cl)C2(Cl)C3(Cl)Cl)cc1 (centres undefined)	3.48 µM	10.1 µM	10.2 µM	4.12 µM	11.1 µM	3.38 µM	–	3.74 µM	3.58 µM	6.84 µM	1.98 µM	3.13 µM	2.15 µM	2.5 µM	3.37 µM	1.79 µM	–	1.93 µM	1.66 µM	3.58 µM
CC(C)CCCC(C)C1CCC2C3CC([N+](=O)[O-])=C4CC(O)CCC4(C)C3CCC12C (centres undefined)	45.7 µM	–	33.6 µM	37 µM	43 µM	50.9 µM	35.2 µM	–	40.3 µM	88.2 µM	–	–	–	–	–	–	–	–	–	–
CCC12C=C(C(=O)OC)N3c4ccccc4C4CCN(CCC1)C2C43 (centres undefined)	> 100 µM	–	> 100 µM	> 100 µM	> 100 µM	> 100 µM	> 100 µM	> 100 µM	> 100 µM	> 100 µM	–	–	–	–	–	–	–	–	–	–
C=CCN(CC=C)Cc1c[nH]c2ccccc12	> 100 µM	–	> 100 µM	> 100 µM	> 100 µM	–	> 100 µM	23.8 µM	54.1 µM	> 100 µM	18.4 µM	32.8 µM	32.2 µM	72.7 µM	> 100 µM	–	> 100 µM	6 µM	18.1 µM	–
Cc1ccccc1NC(=O)CC(=O)NNCC(=O)Nc1nnc(-c2ccccc2)s1	> 100 µM	–	> 100 µM	> 100 µM	33.5 µM	–	> 100 µM	> 100 µM	> 100 µM	> 100 µM	–	–	–	–	–	–	–	–	–	–
c1cc(OCCCCCOc2cccc(-c3nc4ccccc4[nH]3)c2)cc(-c2nc3ccccc3[nH]2)c1	2.79 µM	> 100 µM	> 100 µM	> 100 µM	> 100 µM	–	> 100 µM	3.08 µM	> 100 µM	–	1.47 µM	2.71 µM	2.69 µM	–	2.03 µM	–	2.82 µM	1.68 µM	2.83 µM	3.27 µM
CC(C)(C)c1ccc(OCCOCCOc2ccc(C(C)(C)C)cc2S(N)(=O)=O)c(S(N)(=O)=O)c1	> 100 µM	–	> 100 µM	> 100 µM	> 100 µM	> 100 µM	> 100 µM	> 100 µM	> 100 µM	28.7 µM	–	–	–	–	–	–	–	–	–	–
CC(=O)NC(CCCNC(=O)OCc1ccccc1)C(=O)NCc1ccccc1 (centres undefined)	> 100 µM	–	> 100 µM	> 100 µM	> 100 µM	> 100 µM	> 100 µM	> 100 µM	> 100 µM	> 100 µM	–	–	–	–	–	–	–	–	–	–
CC1(C)CC(=O)C(C(=O)Nc2cccs2)=C(O)C1	33.7 µM	–	> 100 µM	> 100 µM	> 100 µM	> 100 µM	> 100 µM	> 100 µM	> 100 µM	88.1 µM	–	–	–	–	–	–	–	–	–	–
O=C(CC1(O)C(=O)Nc2c(Cl)ccc(Cl)c21)c1ccc(Cl)cc1 (centres undefined)	32.8 µM	–	> 100 µM	78 µM	41.4 µM	56.8 µM	> 100 µM	–	48.9 µM	–	–	–	–	–	–	–	–	–	–	–
COc1ccc(C(C)Nc2cc(OC)c(OC)c(OC)c2)cc1 (centres undefined)	7.78 µM	–	> 100 µM	> 100 µM	63.8 µM	20.9 µM	> 100 µM	> 100 µM	> 100 µM	> 100 µM	–	–	–	–	–	–	–	–	–	–
O=C(CCN1CCOCC1)Nc1ccc(Cn2nnc3c2C(=O)c2nnn(Cc4ccc(NC(=O)CCN5CCOCC5)cc4)c2C3=O)cc1	2.13 µM	> 52.4 µM	> 100 µM	–	3.44 µM	> 100 µM	–	1.71 µM	3.14 µM	3.48 µM	0.645 µM	> 100 µM	–	0.763 µM	1.36 µM	> 100 µM	–	0.59 µM	1.53 µM	18.6 µM
CN(C)c1ccc(/C=C2\CCc3ccccc3C2=O)cc1Br	> 100 µM	–	> 100 µM	> 100 µM	> 100 µM	> 100 µM	> 100 µM	76.8 µM	> 100 µM	> 100 µM	–	–	–	–	–	–	–	–	–	–
COC1=CC(=O)C(O)=C(CC2(C)C(C)CCC3(C)C2CCCC3(C)C)C1=O (centres undefined)	19.2 µM	–	14.8 µM	27.3 µM	> 100 µM	7.79 µM	18.2 µM	12.2 µM	5.96 µM	18.5 µM	–	–	–	–	–	–	–	–	–	–

Source: PubChem BioAssay (NCI)
